Test results: PMC12534982 (Journal of Experimental & Clinical Cancer Research : CR, 2025)

What was measured:
Type in all cases: cell-based, human
colorectal cancer cells [1] = experiment: Cell proliferation assay (Trypan Blue exclusion)
Method: Cancer cells (7.5 × 10^3) were cultured in 60-mm Petri dishes and treated with DMSO or NK-A 17E-233I (25 µM) to evaluate their proliferation at various time intervals (24 h, 48 h, 96 h, 120 h) using the Trypan Blue exclusion assay.

SW620 cells = experiment: Mitochondrial respiration (OCR) in intact cells; conditions: 24 h
Method: Oxygen consumption rate (OCR) was measured using a high-resolution respirometer (Oxygraph-2k, Oroboros Instruments, Innsbruck, Austria). SW620 cells (2.2 × 10^6) were cultured in 100-mm Petri dishes and treated with DMSO or NK-A 17E-233I (25 µM) for 24 h. Cells were harvested at 80% confluency using 0.25% trypsin/EDTA and resuspended in complete DMEM at a concentration of 5 × 10^5 cells/mL. The cells were subsequently analyzed in two 2 mL Oxygraph chambers. Real-time measurements of OCR were conducted at 37 °C under basal conditions and following the sequential addition of inhibitors targeting various mitochondrial respiratory complexes: oligomycin (2.5 μM) to inhibit complex V (to assess ATP-linked respiration and leak rate), carbonyl cyanide-p-trifluoromethoxyphenylhydrazone (FCCP) with stepwise titration in 0.5 μM increments (to evaluate maximal electron transport system respiratory capacity and reserve capacity), and rotenone (0.5 μM) and antimycin A (2.5 μM) to inhibit complex I and complex III, respectively (to measure non-mitochondrial oxygen consumption). The values of OCR were normalized to mitochondrial DNA copy number, which was quantified by qPCR using the primers referenced above. Data analysis was performed using DatLab7 (Oroboros, Austria) software.

colorectal cancer cells [2] = experiment: DNA damage immunostaining (γ-H2AX, Rad51); conditions: 25 µM, 24 h
Method: To evaluate DNA damage, cancer cells (1 × 10^3) were cultured in 8-well collagen IV Ibidi chamber slides (#80,822; Ibidi) for 24 h, treated with DMSO or NK-A 17E-233I (25 µM) for an additional 24 h, and then fixed. For assessing the integrity of the cytoskeleton, neuronal cells (BFCNs) were cultured on coverslips for 14 days, while non-neuronal cells (cancer cells) were cultured on coverslips for 24 h. Both neuronal and non-neuronal cells were treated with DMSO or NK-A 17E-233I (1 µM) for 24 h, fixed, and permeabilized as described in [21]. Samples were then blocked (non-neuronal cells with 3% BSA in PBS-T and neuronal cells with 10% BSA in PBS-T) and incubated overnight at 4 °C with the appropriate primary antibodies. Following this, samples were washed with PBS-T and incubated for 1 h with Alexa-488 Phalloidin (#A12379; Invitrogen-ThermoFisher Scientific) to visualize F-actin, along with the corresponding secondary antibodies. The cells were mounted with Ibidi mounting medium containing 4',6-diamidino-2-phenylindole (DAPI, #50011; Ibidi) prior to imaging. […]
The density of γ-H2AX, Rad51, ΔΨm, and oxidative stress in cancer cells was measured as described in [32], utilizing custom macros available as open access at Zenodo (https://zenodo.org/records/8387899) to obtain raw intensities and individual cell area.

[3] = tested on: colorectal cancer cell lines; experiment: DNA fiber assays
Method: Cancer cells were pulse-labeled with 20 µM iododeoxyuridine (IdU) in the dark at 37 °C for 20 min. Subsequently, the cells were washed twice with PBS and then pulse-labeled with 200 µM chlorodeoxyuridine (CldU) in the presence or absence of NK-A 17E-233I (25 µM) in the dark at 37 °C for 1 h. To assess fork restart in cancer cells following treatment, cells were pulse-labeled with 20 µM IdU for 10 min, after which NK-A 17E-233I (25 µM) was either added or no treatment was administered, followed by an additional 1 h of incubation. The cells were then washed twice with PBS and pulse-labeled with 200 µM CldU for 30 min. Following the labeling procedure, cells were washed twice with PBS, scrapped into PBS containing 0.1% Bovine Serum Albumin (BSA), pelleted, and resuspended in PBS with 0.1% BSA at a final concentration of 1.5 × 10^3 cells/µL. A volume of 2.5 µL of the cell suspension was spotted onto a positively charged slide and lysed with 7.5 µL of a spreading buffer (200 mM Tris–HCl, pH 7.5; 50 mM EDTA; 0.5% SDS) at room temperature for 8 min. The slides were then tilted at 45 ° to facilitate DNA spreading. After air-drying, the slides were fixed with ice-cold methanol/acetic acid (3:1) for 5 min, air-dried again, and stored at 4 °C.
The slides were rehydrated with PBS, denatured with 2.5 M HCl for 1 h, washed twice with PBS, and blocked with a blocking buffer (3% BSA; 0.1% Triton X-100 in PBS) for 40 min. Subsequently, the slides were incubated with a primary antibody mixture, including mouse anti-5-Bromo-2'-Deoxyuridine (anti-BrdU) recognizing IdU (#347580; Becton Dickinson, dilution 1:250) and rat anti-BrdU recognizing CldU (#6326; Abcam, dilution 1:250), diluted in a blocking buffer within a dark humid chamber at room temperature for 2.5 h.
For silencing, siNT (non-target, D-001810–10-20 On-TARGET plus Non-targeting pool, Dharmacon) (Horizon Discovery, Waterbeach, UK) and siPOLD2 (Smart pool, ON-TARGETplus Human POLD2 (5425) siRNA oligos directed against human POLD2), were used to transfect cells using RNAiMax Lipofectamine Reagent Mix (Life Technologies) according to the manufacturer’s protocol. 48 h post-transfection, the cells were harvested to evaluate the efficiency of gene silencing, which was estimated to be approximately 90% based on western blot analysis, for further experimental applications.
Afterwards, the slides were washed three times with PBS for 5 min each and incubated with secondary antibodies, anti-mouse Alexa Fluor 594 and anti-rat Alexa Fluor 488 (#A11005 and #A11006, respectively; Invitrogen, dilution 1:250), in a blocking buffer at room temperature in a dark humid chamber for 1 h. After three additional washes with PBS and air-drying, the slides were mounted with ProLong Gold Antifade Reagent (#P36930; Invitrogen) and stored at 4 °C until imaging. Images were acquired using an AF6000 Leica Fluorescence microscope equipped with an HCX PL APO 63x (NA = 1.4) oil objective. ImageJ/Fiji software was utilized to measure the fibers with the segmented line tool.

In the case of COc1cc(C)c(Oc2cc(C)cc(O)c2O)c(O)c1 [NK-A 17E-233I], the cell proliferation (colorectal cancer cells [1]; 25 µM, over time) is reported as “reduced”, the “growth inhibition in the presence of physiological uridine” value (colorectal cancer cells [1]; SW620, 25 µM, 24 h, 5 µM and 20 µM uridine) is reported as “did not mitigate the growth inhibitory effects” and the maximal respiration (SW620 cells; 25 µM) is reported as “significantly decreased”. For the same compound, the “basal and ATP-linked respiration in intact cells” value (SW620 cells; NK-A 17E-233I 25 µM, Brequinar 100 µM) was “retained basal respiration”, the “intensity of γ-H2AX and Rad51” value (colorectal cancer cells [2]) was “significant increase” and the “speed of replication forks (CldU tracks)” value ([3]; 25 µM, 1 h) was “significantly reduced”. For the same compound, the “rescue of replication fork speed by physiological uridine” value ([3]; 25 µM, uridine 10 µM) was “did not demonstrate any discernible rescue”, the “rescue of DNA-damaging effects by excess uridine” value ([3]; 25 µM, uridine 200 µM) was “rescued the DNA-damaging effects” and the “replication fork progression after washout (fork restart)” value ([3]; LS174T, 25 µM, 1 h then washout) was “continued to demonstrate a diminished progression rate”. The “speed of replication forks (CldU tract length)” value ([3]; SW620, 25 µM, 1 h) was “significantly diminished”.
